According to ChEMBL document CHEMBL1201862, “PubChem BioAssay data set” (2004):
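Tested at 5 concentrations; 48 h exposure; 96-well plates; endpoints linearly interpolated, else capped at highest concentration. Here, GI50 denotes the concentration required for 50% inhibition of growth.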 Activity calls are given as the source filed them. No stated cut-off is given here; in the data, active = GI50 up to about 1.1 µM and inactive = higher.

What was measured:
Test in all cases: DTP human tumour cell line panel, 48 h
M14 = test system: M14
SK-OV-3 = test system: SK-OV-3
NCI-H226 = test system: NCI-H226
NCI-H23 = test system: NCI-H23
A498 = test system: A498
RXF 393 = test system: RXF 393
UACC-257 = test system: UACC-257
ACHN = test system: ACHN
LOX IMVI = test system: LOX IMVI
SNB-19 = test system: SNB-19
SK-MEL-5 = test system: SK-MEL-5
HT-29 = test system: HT-29
TK-10 = test system: TK-10
NCI-H460 = test system: NCI-H460
HCT-116 = test system: HCT-116
LXFL 529 = test system: LXFL 529
COLO 205 = test system: COLO 205

Measured: GI50

Cc1csc(=S)n1OC(=O)NC1CCCCC1
inactive: M14 40.9 µM | SK-OV-3 > 100 µM | NCI-H226 > 100 µM | NCI-H23 > 21.9 µM | A498 > 92.5 µM | RXF 393 > 100 µM | UACC-257 > 60.1 µM | ACHN > 100 µM | LOX IMVI 65.3 µM | SNB-19 > 100 µM | SK-MEL-5 > 51.4 µM | HT-29 > 48.9 µM | TK-10 > 100 µM | NCI-H460 > 100 µM | HCT-116 > 58.2 µM | LXFL 529 13.8 µM

C/N=c1\ss/c(=N\C(=S)N(C)C)n1C
inactive: M14 > 100 µM | SK-OV-3 > 100 µM | NCI-H226 27.5 µM | NCI-H23 > 100 µM | A498 > 100 µM | RXF 393 > 100 µM | UACC-257 > 100 µM | ACHN > 100 µM | SNB-19 > 100 µM | SK-MEL-5 > 100 µM | HT-29 > 100 µM | TK-10 41.1 µM | NCI-H460 > 100 µM | HCT-116 > 100 µM | LXFL 529 > 100 µM

Cc1ccc(NC(=S)SCCC(=O)O)cc1
inactive: M14 > 100 µM | NCI-H226 > 100 µM | NCI-H23 > 100 µM | A498 > 100 µM | RXF 393 > 100 µM | UACC-257 > 100 µM | ACHN > 100 µM | LOX IMVI > 100 µM | COLO 205 > 100 µM | SNB-19 > 100 µM | HT-29 > 100 µM | TK-10 > 100 µM | NCI-H460 > 100 µM | HCT-116 > 100 µM | LXFL 529 > 100 µM

CCNC1C2(CCCCC2)NC(=O)C12CCCCC2 (centres undefined)
inactive: M14 > 100 µM | SK-OV-3 > 100 µM | NCI-H226 > 100 µM | NCI-H23 > 100 µM | A498 > 100 µM | RXF 393 > 100 µM | UACC-257 > 100 µM | ACHN > 100 µM | SK-MEL-5 > 100 µM | HT-29 > 100 µM | TK-10 > 100 µM | NCI-H460 > 100 µM | HCT-116 > 100 µM | LXFL 529 > 100 µM

CCC12C=CCN3CCC4(C(=C(C(=O)OC)C1)Nc1ccccc14)[C@H]32 (some centres undefined)
inactive: M14 21.6 µM | SK-OV-3 21.8 µM | NCI-H226 31.8 µM | NCI-H23 28.4 µM | A498 29.6 µM | RXF 393 24.9 µM | UACC-257 34.4 µM | ACHN 64 µM | LOX IMVI 20.8 µM | COLO 205 18.4 µM | SNB-19 26.6 µM | SK-MEL-5 27.2 µM | HT-29 22.6 µM | TK-10 68.9 µM | NCI-H460 18.8 µM | HCT-116 30.8 µM | LXFL 529 31.6 µM

CCC12C=CCN3CCC4(c5cc(C6(C(=O)OC)CCCCCc7c6[nH]c6ccccc76)c(OC)cc5N(C)C4C(O)(C(=O)OC)C1OC(C)=O)C32 (centres undefined)
active: HT-29 0.562 µM
inactive: M14 2.64 µM | NCI-H226 2.64 µM | A498 2.4 µM | RXF 393 1.64 µM | ACHN 1.61 µM | LOX IMVI 1.61 µM | COLO 205 2.93 µM | SNB-19 3.15 µM | TK-10 2.39 µM | NCI-H460 2.31 µM | HCT-116 2.9 µM | LXFL 529 1.84 µM

CCOC(=O)C(Cc1c[nH]c2cc([N+](=O)[O-])ccc12)NS(=O)(=O)c1ccc2ccccc2c1 (centres undefined)
inactive: M14 19 µM | SK-OV-3 23.4 µM | NCI-H226 16.7 µM | NCI-H23 21.9 µM | A498 29.2 µM | RXF 393 14.7 µM | UACC-257 15.3 µM | ACHN 23.6 µM | LOX IMVI 17.5 µM | COLO 205 18 µM | SNB-19 37.9 µM | HT-29 17.2 µM | TK-10 26.4 µM | NCI-H460 18.1 µM | HCT-116 17.2 µM | LXFL 529 17.5 µM

COC1=CCC=C(C[C@@H]2NCCc3cc(OC)c(OC)cc32)C1
inactive: M14 > 100 µM | SK-OV-3 > 100 µM | NCI-H226 32.1 µM | NCI-H23 > 100 µM | A498 > 100 µM | RXF 393 > 100 µM | UACC-257 > 100 µM | ACHN > 100 µM | LOX IMVI > 100 µM | COLO 205 > 100 µM | SNB-19 > 100 µM | SK-MEL-5 > 100 µM | HT-29 > 100 µM | TK-10 > 100 µM | NCI-H460 > 100 µM | HCT-116 > 100 µM | LXFL 529 > 100 µM

CCOC(=O)NC(=O)c1cn(C2OC(COC(=O)CCCCCCCCC(=O)OCC3OC(n4cc(C(=O)NC(=O)OCC)c(=O)[nH]c4=O)C4OC(C)(C)OC34)C3OC(C)(C)OC32)c(=O)[nH]c1=O (centres undefined)
inactive: M14 63.4 µM | NCI-H226 77.4 µM | NCI-H23 > 100 µM | A498 > 100 µM | RXF 393 > 100 µM | UACC-257 > 100 µM | ACHN > 100 µM | LOX IMVI > 100 µM | SNB-19 51.6 µM | SK-MEL-5 54.1 µM | HT-29 79.8 µM | TK-10 > 100 µM | NCI-H460 > 100 µM | HCT-116 39.6 µM | LXFL 529 88.5 µM

CCOC(=O)NC(=O)c1cn(CCOC(=O)CCCCCCCCC(=O)OCCn2cc(C(=O)NC(=O)OCC)c(=O)[nH]c2=O)c(=O)[nH]c1=O
inactive: M14 > 100 µM | NCI-H226 > 100 µM | NCI-H23 23.9 µM | A498 > 100 µM | RXF 393 > 100 µM | UACC-257 > 100 µM | ACHN > 100 µM | LOX IMVI > 100 µM | SNB-19 > 100 µM | SK-MEL-5 > 100 µM | HT-29 > 100 µM | TK-10 > 100 µM | NCI-H460 > 100 µM | HCT-116 > 100 µM | LXFL 529 > 100 µM

Cc1c(O)c(O)cc[n+]1C1OC(CO)C(O)C1O (centres undefined)
inactive: M14 > 100 µM | SK-OV-3 > 100 µM | NCI-H226 > 100 µM | NCI-H23 > 100 µM | A498 > 100 µM | RXF 393 > 100 µM | UACC-257 > 100 µM | ACHN > 100 µM | LOX IMVI > 100 µM | COLO 205 > 100 µM | SNB-19 > 100 µM | HT-29 > 100 µM | TK-10 > 100 µM | NCI-H460 > 100 µM | HCT-116 > 100 µM | LXFL 529 33.1 µM

Cc1cccc(Cl)c1NC(=O)c1cccc([N+](=O)[O-])c1O
inactive: M14 43.8 µM | SK-OV-3 43.2 µM | NCI-H226 22.2 µM | NCI-H23 28.1 µM | A498 33 µM | RXF 393 16.7 µM | UACC-257 28.4 µM | ACHN 31.9 µM | LOX IMVI 27.5 µM | COLO 205 51.5 µM | SNB-19 38.5 µM | HT-29 41.8 µM | NCI-H460 29 µM | HCT-116 43.3 µM | LXFL 529 50.6 µM
